Data taken from PubChem BioAssay AID1419 (Emory University Molecular Libraries Screening Center, 2008).
Activity calls are given as the source filed them. How the calls were made is not given here.

Assay: EBV protein-peptide binding inhibitors, dose response, biochemical, fluorescence polarization (AID 1419)
Conditions: cell-free protein-peptide binding, 2 h; for fold change: measured here: P channel fold over control, at 54 µM

Row | Compound | IC50 | fold change
1 | CCN1CC=C2C(C#N)=C(N)C(C#N)(C#N)[C@H](c3ccoc3)[C@H]2C1 | 7.47 µM | 3.84
2 | CCOC(=O)c1cc2n(c1N)-c1ccccc1C2=O | < 0.42 µM | 104
3 | Cc1cc(C=C2C(=O)c3ccccc3C2=O)c(C)n1-c1ccccc1 | 5.56 µM | 9.41
4 | Cc1ccc(/C=c2\sc3nc(-c4cccnc4)nn3c2=O)cc1 | > 54 µM (inactive) | 1.13
5 | O=c1[nH]c2ccc(N=Cc3c(O)ccc4cc(Br)ccc34)cc2[nH]1 | 0.97 µM | 7.85
6 | O=[N+]([O-])c1ccc(O)c(N=Cc2sc3ccccc3c2O)c1 | > 54 µM (inactive) | 1.45
7 | CC1CC=C2C(C#N)=C(N)C(C#N)(C#N)C(c3cccs3)C2C1 (configuration not stated) | 12.8 µM | 2.49
8 | Nc1ccc2c(c1Cl)C(=O)c1ccc(N)c(Cl)c1C2=O | 11.4 µM | 1.07
9 | O=[N+]([O-])c1cc(/C=N\Nc2nccs2)ccc1O | 1.31 µM | 1.07
10 | COC(=O)c1cc2c(-c3ccccc3)c(C)c3ccccn3c-2c1C(=O)OC | 9.93 µM | 1.47
11 | O=C1c2cccc3cc([N+](=O)[O-])cc(c23)C(=O)N1/N=C/c1ccc(O)cc1O | 10 µM | 0.933
12 | CCOC(=O)c1ccc(N2C(=O)C3C(C2=O)C(C(=O)c2ccc(Cl)cc2)N2CCCC32)cc1 (configuration not stated) | 2.54 µM | 5.32
13 | O=[N+]([O-])c1ccc(/C=C/c2nc3ccc([N+](=O)[O-])cc3[nH]2)cc1 | 2.48 µM | 1.15
14 | Nc1cc2nsnc2cc1Br | 28.6 µM | 1.84
15 | Cc1nn(-c2ccccc2)c(N2CCCC2)c1/C=C1\N=C(c2ccccc2)OC1=O | 25.5 µM | 3.5
16 | CCOc1cc(-c2ccc(N)c(OCC)c2)ccc1N | 1.52 µM | 5.61
17 | O=C(NNC1=Nc2cccc3cccc1c23)c1ccc(Br)cc1 | > 54 µM (inactive) | 3.27
18 | Cc1ccsc1C1C=C(c2cccc(Br)c2)Nc2ncnn21 (configuration not stated) | 1.75 µM | 3.13
19 | Cn1c(/N=C/c2c(O)ccc3ccccc23)nc2ccccc21 | 3.17 µM | 41.9
20 | Cc1ccc(N2C(=O)[C@@H]3[C@H](C2=O)C2c4ccccc4C=CN2[C@@H]3C(=O)c2ccco2)cc1 (some centres not stated) | 5.71 µM | 2.76
21 | CCOC(=O)c1c(/N=C/c2c(O)n(-c3ccc(F)cc3)c(=S)[nH]c2=O)sc2c1CCCC2 | 22.8 µM | 3.7

Row | Compound | IC50 | fold change
22 | O=[N+]([O-])c1ccc2[nH]c(O)c(N=NC(=S)Nc3cccnc3)c2c1 | > 54 µM (inactive) | 0.61
23 | N=C1/C(=C\c2ccc(-c3ccc(C(=O)O)cc3)o2)C(=O)N=C2SC=C(c3ccccc3)N12 | 3.3 µM | 1.28
24 | CCN1CCN(CC(=O)N2N=C(c3cccs3)CC2c2ccc(OC)c(OC)c2)C(=O)C1=O (configuration not stated) | > 54 µM (inactive) | 1.25
25 | O=[N+]([O-])c1ccc(-c2cn3nc(-c4ccccc4)c(-c4ccccc4)nc3n2)cc1 | 3.58 µM | 21.1
26 | CCCN1C(=O)/C(=C\C=C2\N(CC)c3ccccc3C2(C)C)SC1=S | 3.39 µM | 20
27 | COC(=O)c1ccccc1NC(=O)CCS(=O)(=O)c1ccc(Br)cc1 | 12.2 µM | 1.08
28 | COc1ccc(CCNC(=O)COc2nsnc2N2CCOCC2)cc1OC | > 54 µM (inactive) | 1.22
29 | COc1ccc(NC(=O)NC(=O)c2cc(OCC(F)(F)F)ccc2OCC(F)(F)F)cc1 | > 54 µM (inactive) | 0.943
30 | CCCN1CC=C2C(C#N)=C(N)C(C#N)(C#N)C(c3cccc(OC)c3OC)C2C1 (configuration not stated) | 1.28 µM | 7.4
31 | CC(C)(CCl)C(=O)Nc1ccc(OC(F)(F)F)cc1 | > 54 µM (inactive) | 1.14
32 | O=Cc1cnc(N2CCCCC2)s1 | > 54 µM (inactive) | 1.06
33 | CCOc1ccc(Cn2c3ccc(OC)cc3c3nc4ccccc4nc32)cc1 | 1.15 µM | 6.17
34 | Cc1cc(C=C2C(=O)NC(=S)NC2=O)c(C)n1-c1ccc2c(c1)OCO2 | 43.5 µM (inactive) | 2.39
35 | N#CC(C#N)=Cc1ccc(-c2ccccc2F)o1 | 5.06 µM | 18.8
36 | CCc1nn2c(=O)cc(COc3ccc(/C=C4\C(=N)N5N=C(C)SC5=NC4=O)cc3)nc2s1 | 16.6 µM | 1.14
37 | CN(C)c1ccc(/C=C/C(=O)c2cc(Cl)ccc2O)cc1 | 15.9 µM | 1.94
38 | O=C1NC(=O)C2=Cc3ccc(O)cc3OC2(O)N1 (configuration not stated) | < 0.42 µM | 100
39 | COc1cc(N2CCCC2)c(OC)cc1/C=C(/C#N)c1ccc(F)cc1 | 9.59 µM | 10.8
40 | OCCCc1nc2n(n1)C(c1cccs1)C=C(c1ccc(Br)cc1)N2 (configuration not stated) | < 0.42 µM | 37.6
41 | N#CC1=C(N)C(C#N)(C#N)C(c2cccnc2)C2CCCC=C12 (configuration not stated) | 4.81 µM | 2.44
42 | CCn1c(CSc2nnc3ccccn23)nc2cc(C(=O)O)ccc21 | 4.04 µM | 1.93

Row | Compound | IC50 | fold change
43 | COc1ccc(C2CC(c3ccccc3)n3nc(NC(=O)c4cccs4)nc3N2)cc1 (configuration not stated) | > 54 µM (inactive) | 0.943
44 | CCOc1ccccc1-c1c2cc(O)c(=O)cc-2oc2cc(O)c(O)cc12 | > 54 µM (inactive) | 232
45 | C(=N\N1CCOCC1)/c1nc(-c2ccccc2)n2ccccc12 | 26.6 µM | 4.71
46 | COc1cc(C2C(C#N)=C(N)OC3=C2C(=O)CCC3)c([N+](=O)[O-])cc1OC (configuration not stated) | > 54 µM (inactive) | 1.22
47 | O=C(Cn1cnc2scc(-c3cccc([N+](=O)[O-])c3)c2c1=O)NCc1ccco1 | > 54 µM (inactive) | 1.04
48 | CN1CC=C2C(C#N)=C(N)C(C#N)(C#N)[C@H](c3ccoc3)[C@H]2C1 | > 54 µM (inactive) | 1.96
49 | Nc1ccc(-c2nc3ccc(C(=O)O)cc3s2)cc1 | > 54 µM (inactive) | 1
50 | CCN(CC)c1ccc2oc(=O)c(C)nc2c1 | 4.76 µM | 9.58
51 | Cc1ccc(-c2nc(SCC(=O)Nc3ccccc3OC(F)F)c3c(C)c(C(=O)O)sc3n2)cc1 | 18.2 µM | 1.05
52 | O=c1[nH]c(C(Cl)Cl)nc2sc3c(c12)CCN(Cc1ccccc1)C3 | 11.8 µM | 2
53 | CCCn1c(=C(C#N)C#N)s/c(=C2\C=Cc3ccccc3N2CC)c1=O | > 54 µM (inactive) | 1.52
54 | CN(C(=O)COC(=O)c1cc(-c2ccco2)nc2ccccc12)C1CCS(=O)(=O)C1 (configuration not stated) | 2.91 µM | 0.9
55 | Cc1ccc(N=Nc2c(O)n(CN3CCOCC3)c3ccccc23)cc1 | 2.43 µM | 10.9
56 | COc1nc(N/N=C/c2ccc(-c3cccc([N+](=O)[O-])c3)o2)nc(N2CCOCC2)n1 | 24.2 µM | 0.463
57 | Cc1cc(=O)oc2c(CN3CCC(C)CC3)c(O)c(Cl)cc12 | 2.42 µM | 2.16
58 | CS(=O)(=O)N1N=C(c2ccccc2)CC1c1ccc2c(c1)OCO2 (configuration not stated) | 9.83 µM | 4.93
59 | O=C1CCCC2=C1Sc1ccc(Cl)cc1N2 | 5.79 µM | 2.69
60 | CC(=O)Nc1ccc(N2CCc3c(C)c(C#N)c4nc5ccccc5n4c32)cc1 | > 54 µM (inactive) | 3.39
61 | CCOC(=O)C1CCCN(c2ccc([N+](=O)[O-])c3nonc23)C1 (configuration not stated) | < 0.42 µM | 143
62 | COc1ccccc1N1C(=O)C2C(C(=O)c3ccccc3)=NN(c3ccc(Br)cc3)C2C1=O (configuration not stated) | > 54 µM (inactive) | 16.6
63 | N#C/C(=C\C1=C(N2CCOCC2)C(=C\c2ccc(Cl)cc2)/CC1)C(=O)Nc1ccccc1F | 3.43 µM | 4.49

Row | Compound | IC50 | fold change
64 | O=c1nc2c(O)cccn2c2c1c(=O)[nH]c1ccccc12 | < 0.42 µM | 7.35
65 | c1ccc(-c2ccnc3nc(N4CCN(c5ccccc5)CC4)nn23)cc1 | > 54 µM (inactive) | 0.987
66 | Cc1ccc(C(NC(=O)C2CCCCC2)c2c(O)ccc3ccccc23)cc1 (configuration not stated) | > 54 µM (inactive) | 1.03
67 | Cc1c(N=C2N=C(NC(=O)c3ccc(F)cc3)c3ccccc32)c(=O)n(-c2ccccc2)n1C | 6.56 µM | 6.09
68 | CC(=O)N/N=C/c1cc(C(C)C)cc(/C=N/NC(C)=O)c1O | 2.84 µM | 4.18
69 | Cc1cc(=O)oc(C)c1C(=O)Nc1ccc2ncccc2c1 | 2.96 µM | 5.89
70 | Cc1cccc(NC(=O)CSc2nnnn2C)n1 | > 54 µM (inactive) | 1.02
71 | N#Cc1c(N)sc(=S)c2c1CCCC2 | > 54 µM (inactive) | 1.09
72 | Cc1ccc2cc(C=C(C#N)C#N)c(N3CCCCC3)nc2c1 | 2.98 µM | 24
73 | COCCCn1c(=NC(=O)c2ccccc2)c(C#N)cc2c(=O)n3cccc(C)c3nc21 | 3.88 µM | 4.43
74 | CSc1nc(N(C)CCO)c2sc3nc(-c4ccco4)c4c(c3c2n1)CCC4 | > 54 µM (inactive) | 1.04
75 | CC(C)(O)[C@H]1O[C@H]2CC[C@@]3(C)[C@@](O)(CC[C@H]4Cc5c([nH]c6ccccc56)[C@@]43C)C2=CC1=O | 2.03 µM | 3.36
76 | N#CC1=C(N)OC2=C(CC/C2=C\c2ccc(F)cc2)C1c1ccc(F)cc1 (configuration not stated) | 20 µM | 3.48
77 | N#CC1(C#N)CC(C=O)=C(N)C1(C#N)CC(=O)C12CC3CC(CC(C3)C1)C2 (configuration not stated) | > 54 µM (inactive) | 0.933
78 | COC(=O)c1c(Cl)c2n3ccccc3c(C)c(-c3ccccc3)c-2c1C(=O)OC | 2.39 µM | 2.2
79 | CCOC(=O)c1cc2n(c1/N=C/N(C)C)-c1ccccc1C2=O | < 0.42 µM | 42.3
80 | O=c1cc2oc3cc(O)c(O)cc3c(-c3ccccc3O)c-2cc1O | 5.29 µM | 232
81 | COc1cc(CCC(=O)N2CCN(c3ncccn3)CC2)cc(OC)c1OC | > 54 µM (inactive) | 1.05
